These results are taken from patent US10167279B2 (NOVARTIS AG, priority 2014, dated 2019).

A word on the pIC50: it is the negative decadic logarithm of the IC50, by convention in mol/L. Lower therefore signals a large IC50.

pIC50: −log10 of the molar value.

In the experiment the target is C-Raf FL (Homo sapiens (Human), UniProt P04049, Y340E/Y341E). Nature of the experiment: In vitro Raf activity determination (Alpha Screen, phospho-MEK), C-Raf FL (full length, Y340E/Y341E). It counts as biochemical. As to conditions: ATP 1 μM; 60 min pre-incubation; 1 hour reaction; column head does not say FL or TR. In outline: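 Read-out is AlphaScreen luminescence using rabbit anti-p-MEK with protein A beads after EDTA stop, with IC50 fitted by non-linear regression. Reaction: Sf9-derived C-Raf plus biotinylated E. coli MEK1 K97R substrate, pH 7.5 Tris/MgCl2/DTT buffer, compound preincubated 60 min at room temperature.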
Chain of C-Raf FL (P04049 whole entry Y340E/Y341E): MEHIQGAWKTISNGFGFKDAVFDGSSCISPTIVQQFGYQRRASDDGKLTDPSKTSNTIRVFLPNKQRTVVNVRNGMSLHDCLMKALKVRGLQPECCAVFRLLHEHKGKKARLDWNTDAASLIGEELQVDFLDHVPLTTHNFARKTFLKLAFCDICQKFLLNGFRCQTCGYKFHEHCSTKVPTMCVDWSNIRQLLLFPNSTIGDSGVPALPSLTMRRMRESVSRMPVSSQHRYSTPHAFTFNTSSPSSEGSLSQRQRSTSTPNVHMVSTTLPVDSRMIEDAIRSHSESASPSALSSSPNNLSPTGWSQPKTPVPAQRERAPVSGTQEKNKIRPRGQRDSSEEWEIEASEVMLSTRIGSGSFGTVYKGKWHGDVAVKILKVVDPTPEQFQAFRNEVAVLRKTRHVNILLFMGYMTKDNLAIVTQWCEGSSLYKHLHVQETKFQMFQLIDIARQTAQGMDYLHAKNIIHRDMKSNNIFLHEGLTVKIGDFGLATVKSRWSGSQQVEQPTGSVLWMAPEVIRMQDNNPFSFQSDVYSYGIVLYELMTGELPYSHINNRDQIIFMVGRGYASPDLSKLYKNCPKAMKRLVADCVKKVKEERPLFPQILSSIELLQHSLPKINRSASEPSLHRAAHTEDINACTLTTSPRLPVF
Chain of C-Raf FL (P63104 whole entry partner): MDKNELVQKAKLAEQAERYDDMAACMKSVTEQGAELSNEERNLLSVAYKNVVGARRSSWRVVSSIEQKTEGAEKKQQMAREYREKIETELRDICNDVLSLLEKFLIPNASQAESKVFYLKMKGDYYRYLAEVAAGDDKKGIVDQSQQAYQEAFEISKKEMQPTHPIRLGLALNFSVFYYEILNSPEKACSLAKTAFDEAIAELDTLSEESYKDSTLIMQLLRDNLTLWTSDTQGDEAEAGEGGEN
In turn, `Cc1ccc(NC(=O)c2cc(C(F)(F)F)ccn2)cc1-c1cc(OCCO)nc(C2CCOCC2)c1` [Example 272, N-(3-(2-(2-hydroxyethoxy)-6-(tetrahydro-2H-pyran-4-yl)pyridin-4-yl)-4-methylphenyl)-4-(trifluoromethyl) picolinamide] showed a pIC50 of 10.30.

`COc1ncc(-c2cc(C(=O)Nc3cc(C(C)(C)N)cc(C(F)(F)F)c3)ccc2C)cc1C1(O)COC1` [Example 150, N-(3-(2-aminopropan-2-yl)-5-(trifluoromethyl)phenyl)-3-(5-(3-hydroxyoxetan-3-yl)-6-methoxypyridin-3-yl)-4-methylbenzamide] gave a pIC50 of 8.52.

Regarding `Cc1ccc(NC(=O)c2ccnc(C(F)(F)F)c2)cc1-c1cc(OCCO)nc(C2(CF)CCOCC2)c1` [Example 210], the pIC50 is 9.52.

For `Cc1ccc(NC(=O)c2cnnc(C(F)(F)F)c2)cc1-c1cc(OCCO)nc(C2(CF)CCOCC2)c1` [Example 212, N-(3-(2-(4-(fluoromethyl)tetrahydro-2H-pyran-4-yl)-6-(2-hydroxyethoxy)pyridin-4-yl)-4-methylphenyl)-6-(trifluoromethyl) pyridazine-4-carboxamide], the pIC50 was 10.10.

`Cc1ccc(NC(=O)c2ccnc(C(F)(F)F)c2)cc1-c1cc(C2CCOCC2)c(OC(C)C)nn1` [Example 316, N-(3-(6-isopropoxy-5-(tetrahydro-2H-pyran-4-yl)pyridazin-3-yl)-4-methylphenyl)-2-(trifluoromethyl) isonicotinamide] showed a pIC50 of 10.00.

Regarding `Cc1ccc(NC(=O)c2ccnc(C(F)(F)F)c2)cc1-c1cc(C2(C)COC2)c(OCCO)nn1` [Example 14, N-(3-(6-(2-hydroxyethoxy)-5-(3-methyloxetan-3-yl)pyridazin-3-yl)-4-methylphenyl)-2-(trifluoromethyl)isonicotinamide], the pIC50 was 9.70.

In turn, `CCOc1ncc(-c2cc(NC(=O)c3ccnc(C(C)(C)C#N)c3)ccc2C)cc1C1(C#N)CCOC1` (centres unmarked) [Example 169, 2-(2-cyanopropan-2-yl)-N-(3-(5-(3-cyanotetrahydrofuran-3-yl)-6-ethoxypyridin-3-yl)-4-methylphenyl) isonicotinamide] gave a pIC50 of 8.70.

The compound `Cc1ccc(NC(=O)c2cccc(C(F)(F)F)c2)cc1-c1cn(C)c(=O)c(C2COC2)n1` [Example 4, N-(4-methyl-3-(4-methyl-6-(oxetan-3-yl)-5-oxo-4,5-dihydropyrazin-2-yl)phenyl)-3-(trifluoromethyl)benzamide] showed a pIC50 of 8.52.

The compound `CCOc1nnc(-c2cc(NC(=O)c3ccnc(C(F)(F)F)c3)cnc2C)cc1C1CCOCC1` [Example 236, N-(5-(6-ethoxy-5-(tetrahydro-2H-pyran-4-yl)pyridazin-3-yl)-6-methylpyridin-3-yl)-2-(trifluoromethyl) isonicotinamide] gave a negative logarithm of the IC50 (pIC50) of 9.52.

The compound `Cc1ccc(NC(=O)c2ccc(CN)c(C(F)(F)F)c2)cc1-c1cccc(C2COC2)c1` [Example 5, 4-(aminomethyl)-N-(6-methyl-3′-(oxetan-3-yl)-[1,1′-biphenyl]-3-yl)-3-(trifluoromethyl)benzamide] showed a pIC50 of 8.70.

For `Cc1ccc(NC(=O)c2ccnc(C(C)(F)F)c2)cc1-c1cc(OCCO)nc(C2(F)COC2)c1` [Example 54, 2-(1,1-difluoroethyl)-N-(3-(2-(3-fluorooxetan-3-yl)-6-(2-hydroxyethoxy)pyridin-4-yl)-4-methylphenyl)isonicotin-amide], the pIC50 is 9.68.

In turn, `Cc1ccc(NC(=O)c2cnnc(C(F)(F)F)c2)cc1-c1cc2c(c(C3CCOCC3)c1)OC(C)(CO)C(=O)N2` (centres unmarked) [Example 201, N-(3-(2-(hydroxymethyl)-2-methyl-3-oxo-8-(tetrahydro-2H-pyran-4-yl)-3,4-dihydro-2H-benzo[b][1,4]oxazin-6-yl)-4-methylphenyl)-6-(trifluoromethyl) pyridazine-4-carboxamide] gave a pIC50 of 10.00.

In turn, `Cc1ccc(NC(=O)c2ccnc(C(C)(C)C#N)c2)cc1-c1cc(OCCO)nc(C2(CF)CCOCC2)c1` [Example 213, 2-(2-cyanopropan-2-yl)-N-(3-(2-(4-(fluoromethyl)tetrahydro-2H-pyran-4-yl)-6-(2-hydroxyethoxy)pyridin-4-yl)-4-methylphenyl) isonicotinamide] had a pIC50 of 9.70.

`Cc1ccc(NC(=O)c2ccnc(C(F)(F)F)c2)cc1-c1cc(OCCO)nc(C2(C)CCOCC2)c1` [Example 205, N-(3-(2-(2-hydroxyethoxy)-6-(4-methyltetrahydro-2H-pyran-4-yl)pyridin-4-yl)-4-methylphenyl)-2-(trifluoromethyl) isonicotinamide] had a pIC50 of 9.40.

`Cc1ncc(NC(=O)c2ccnc(C(C)(C)F)c2)cc1-c1cnc(OCCO)c(C2(F)COC2)c1` [Example 40, N-(5′-(3-fluorooxetan-3-yl)-6′-(2-hydroxyethoxy)-2-methyl-[3,3′-bipyridin]-5-yl)-2-(2-fluoropropan-2-yl)isonicotinamide] gave a pIC50 of 8.46.

As to `Cc1ncc(NC(=O)c2ccnc(C(C)(C)F)c2)cc1-c1cc(OCCO)nc(C2(F)COC2)c1` [Example 50, N-(2′-(3-fluorooxetan-3-yl)-6′-(2-hydroxyethoxy)-2-methyl-[3,4′-bipyridin]-5-yl)-2-(2-fluoropropan-2-yl)isonicotinamide], the pIC50 was 8.48.

In the case of `Cc1ccc(NC(=O)c2cnnc(C(F)(F)F)c2)cc1-c1cc(OCCO)nc(C2CCOCC2O)c1` (centres unmarked) [Example 245], the pIC50 was 9.00.

`Cc1ccc(NC(=O)c2cc(C(F)(F)F)ccn2)cc1-c1cc2c(c(C3CCOCC3)c1)NC(=O)C(C)(CO)O2` (single isomer, unassigned) [Example 193, N-(3-(2-(hydroxymethyl)-2-methyl-3-oxo-5-(tetrahydro-2H-pyran-4-yl)-3,4-dihydro-2H-benzo [b][1,4]oxazin-7-yl)-4-methylphenyl)-4-(trifluoromethyl) picolinamide carboxamide]: the pIC50 was 10.70.

On to `Cc1ccc(NC(=O)c2cc(Cl)ccn2)cc1-c1cc(OCCO)nc(C2CCOCC2)c1` [Example 261, 4-chloro-N-(3-(2-(2-hydroxyethoxy)-6-(tetrahydro-2H-pyran-4-yl)pyridin-4-yl)-4-methylphenyl) picolinamide], for which the pIC50 is 10.52.

Compound `Cc1ccc(NC(=O)c2ccnc(C(C)(C)C#N)c2)cc1-c1cc(OCCO)nc(C2CCOCC2O)c1` (centres unmarked) [Example 246] gave a pIC50 of 8.22.

In turn, `Cc1ccc(NC(=O)c2ccnc(C#N)c2)cc1-c1cc(OCCO)nc(C2CCOCC2)c1` [Example 263, 2-cyano-N-(3-(2-(2-hydroxyethoxy)-6-(tetrahydro-2H-pyran-4-yl)pyridin-4-yl)-4-methylphenyl) isonicotinamide] gave a pIC50 of 9.70.

`COC1(c2cc(-c3cc(NC(=O)c4cccc(C(F)(F)F)c4)ccc3C)cc(NCCO)n2)COC1` [Example 153, N-(3-(2-((2-hydroxyethyl)amino)-6-(3-methoxyoxetan-3-yl)pyridin-4-yl)-4-methylphenyl)-3-(trifluoromethyl)benzamide] showed a pIC50 of 10.40.

For the compound `Cc1ccc(NC(=O)c2ccnc(Cl)c2)cc1-c1cc(OCCO)nc(C2CCOCC2)c1` [Example 264, 2-chloro-N-(3-(2-(2-hydroxyethoxy)-6-(tetrahydro-2H-pyran-4-yl)pyridin-4-yl)-4-methylphenyl) isonicotinamide], the pIC50 is 9.70.
